Here are results for five compounds from US20240158404A1, “MODULATORS OF ALPHA-1 ANTITRYPSIN” (Vertex Pharmaceuticals Incorporated, priority 2022, published 2024).

The nature of series [1]: Exposure multiple in rat 5-day toxicology studies. Format: in vivo. The conditions noted are these: for EM Score: based on the maximum exposure multiple achieved in the rat 5-day toxicology study; for Exposure Multiple: rat 5-day toxicology study, vs predicted human efficacious exposure. Also noted: key to Exposure Multiple: ratio of tox-species AUC to target efficacious AUCss. An excerpt: “Exposure multiple” as used herein, refers to an assessment of relative compound exposure in toxicology studies. The calculation of an exposure multiple is accomplished by comparing the exposure (AUC) achieved in a toxicology species relative to the target efficacious exposure at steady state (AUCss). The larger exposure multiple provides the opportunity to explore higher doses relative to efficacious concentration in clinical development. However, the exposure that results in an adverse toxicological outcome is unpredictable.
The calculation of an exposure multiple is accomplished by comparing the plasma exposure (AUC) achieved in a toxicology species relative to the target efficacious exposure at steady state (AUCss). […] In addition, this exposure multiple can allow for further exploration of the desired pharmacology due to the opportunity for a larger window established in toxicology studies. However, the exposure that results in a toxicological outcome in preclinical toxicology studies is unpredictable.
Human exposure multiple (EM) values shown relate to the fold increase in exposure achieved in rat 5-day toxicology studies for a given dose relative to the predicted efficacious exposure anticipated in human (based on cellular NL20 EC50 in vitro efficacy). The exposure multiple score is based on the maximum exposure multiple achieved in the given study. This allows relative comparison across compounds when also considering the administered dose. […] In the tables below, the following meanings apply for exposure multiple scores: “−” means <1; “+” means 1-10; “++” means 10-20; “+++” means 20-30; “++++” means 30-50; and “+++++” means >50.

The target in another series is T1, AAT (Homo sapiens, UniProt P01009, E366K).
T1 construct: expressed in transfected cells; host or cells: NL20 human bronchial epithelial cells (NL20-SI cell line), with doxycycline added alongside the compounds
Briefly: Compound Quality score (potency in AAT functional assay multiplied by unbound clearance). The conditions noted are these: compound potency (EC50) x unbound clearance; class symbols. An excerpt: As used herein, the term “Compound Quality” refers to the potency of a compound multiplied (x) by the compound's unbound clearance as measured using the assays described in Example 6.
The terms “unbound clearance” refer to unbound intrinsic clearance (unbound CLint) in hepatocytes—the intrinsic clearance a drug would have in the absence of protein binding. Unbound CLint=CLint,hep/fu,hep, where CLint,hep is intrinsic clearance in hepatocytes and fu,hep is unbound fraction in hepatocytes.
A key consideration for the selection of compounds suitable for clinical development is the projection of human dose as described in Equations 1-3. Two key parameters that comprise the dose equation are the unbound clearance of a compound and the plasma efficacious exposure (also referred to herein as compound potency). Together these parameters are known to one skilled in the art as a measurement of Compound Quality and suitability for advancement into clinical development. Thus, when evaluating AAT modulator compounds, one needs to consider both the potency and unbound clearance parameters (i.e., Compound Quality). The relationship between these two parameters can be challenging to predict.
The values provided in the table below are calculated by multiplying the EC50 of each of the compounds by the result from the clearance assay procedures described in Section C above and rounded to two significant figures. In the table below, the following meanings apply for Compound Quality (i.e., compound potency x unbound clearance) values: “++++” means ≤0.2; “+++” means >0.20 and ≤0.30; “++” means >0.30 and ≤0.40; “+” means >0.40 and ≤0.50.

T1 sequence (P01009 25-418 E366K): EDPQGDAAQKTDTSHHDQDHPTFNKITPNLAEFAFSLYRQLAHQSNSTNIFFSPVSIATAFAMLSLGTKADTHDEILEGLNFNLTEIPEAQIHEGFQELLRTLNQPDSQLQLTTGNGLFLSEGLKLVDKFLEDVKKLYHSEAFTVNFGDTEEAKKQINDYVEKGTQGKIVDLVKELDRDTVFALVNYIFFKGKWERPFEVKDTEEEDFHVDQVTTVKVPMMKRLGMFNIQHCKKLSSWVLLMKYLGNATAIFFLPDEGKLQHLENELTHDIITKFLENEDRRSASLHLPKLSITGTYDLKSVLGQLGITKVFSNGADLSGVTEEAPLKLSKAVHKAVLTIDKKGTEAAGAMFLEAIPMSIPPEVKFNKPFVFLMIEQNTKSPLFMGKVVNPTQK

Regarding `CC[C@@](O)(COC)c1c(-c2ccc(C(=O)O)cc2)c2c(F)c3[nH]ncc3cc2n1-c1ccc(F)cc1` [Compound 1, (S)-4-(8-Fluoro-5-(4-fluorophenyl)-6-(2-hydroxy-1-methoxybutan-2-yl)-1,5-dihydropyrrolo[2,3-f]indazol-7-yl)benzoic acid], the “EM Score” value in series [1] is recorded as “+++++ (“+++++” means >50)”. The figures for the “Exposure Multiple” value in series [1] (Bid dose 50 (daily 100)), in series [1] (Bid dose 200 (daily 400)) and in series [1] (Bid dose 500 (daily 1000)) were 10, 82 and 126, respectively. Besides, the “Compound Quality” value on AAT is reported as “++++ (“++++” means ≤0.2)”.
As to `CC[C@@](O)(COC)c1c(-c2ccc(C(=O)O)cc2)c2c(F)c3[nH]ncc3cc2n1-c1ccc(F)c(C)c1` [Compound 2, (S)-4-(8-fluoro-5-(4-fluoro-3-methylphenyl)-6-(2-hydroxy-1-methoxybutan-2-yl)-1,5-dihydropyrrolo[2,3-f]indazol-7-yl)benzoic acid], the “EM Score” value in series [1] is “++++ (“++++” means 30-50)”. Besides, the “Exposure Multiple” value in series [1] (Bid dose 50 (daily 100)) is reported as 2; in series [1] (Bid dose 200 (daily 400)), 10; in series [1] (Bid dose 500 (daily 1000)), 40. The “Compound Quality” value on AAT was “+++ (“+++” means >0.20 and ≤0.30)”.
As for `CC[C@@](O)(COC)c1c(-c2ccc(C(=O)O)cc2)c2c(F)c3[nH]ncc3cc2n1-c1ccc(F)c(OC)c1` [Compound 3, (S)-4-(8-fluoro-5-(4-fluoro-3-methoxyphenyl)-6-(2-hydroxy-1-methoxybutan-2-yl)-1,5-dihydropyrrolo[2,3-f]indazol-7-yl)benzoic acid], in series [1], the “EM Score” value is listed as “+++++ (“+++++” means >50)”. For the same compound, the entries for the “Exposure Multiple” value in series [1] (Bid dose 50 (daily 100)), in series [1] (Bid dose 200 (daily 400)) and in series [1] (Bid dose 500 (daily 1000)) were 2, 17 and 60, respectively. Besides, the “Compound Quality” value at AAT is “+++ (“+++” means >0.20 and ≤0.30)”.
`CC[C@@](O)(COC)c1c(-c2ccc(C(=O)O)cc2)c2c(F)c3[nH]ncc3cc2n1-c1ccc(F)c(Cl)c1` [Compound 4]: the “EM Score” value in series [1] is “++++ (“++++” means 30-50)”. The results for the “Exposure Multiple” value in series [1] (Bid dose 50 (daily 100)), in series [1] (Bid dose 200 (daily 400)) and in series [1] (Bid dose 400 (daily 800)) were 8, 21 and 32, respectively. Further, the “Compound Quality” value at AAT is “+++ (“+++” means >0.20 and ≤0.30)”.
In the case of `CC[C@@](O)(COC)c1c(-c2ccc(C(=O)O)cc2)c2c(F)c3[nH]ncc3cc2n1-c1ccc(F)c(F)c1` [Compound 5, (S)-4-(5-(3,4-Difluorophenyl)-8-fluoro-6-(2-hydroxy-1-methoxybutan-2-yl)-1,5-dihydropyrrolo[2,3-f]indazol-7-yl)benzoic acid], the “EM Score” value in series [1] was “+++++ (“+++++” means >50)”. For the same compound, the “Exposure Multiple” value in series [1] (Bid dose 50 (daily 100)) is recorded as 39; in series [1] (Bid dose 150 (daily 300)) it was 114; in series [1] (Bid dose 300 (daily 600)) it was 173. On AAT, the “Compound Quality” value is “++++ (“++++” means ≤0.2)”.
